In one assay the test system is MOLT-4. Nature of the assay: Antiproliferative activity against human Molt/4 cells. The assay is classed as functional, cell-based.
For assay [1], the system named is CCRF-CEM. Nature of the assay: Antiproliferative activity against human CEM cells. The class given is functional, cell-based.
Another assay concerns L1210. Nature of the assay: Antiproliferative activity against mouse L1210 cells. The assay is classed as functional, cell-based.
A further assay deals with FM3A. Nature of the assay: Antiproliferative activity against mouse FM3A cells. The class given is functional, cell-based.
The test system of a further assay is Daudi. Nature of the assay: Antiproliferative activity against human Daudi cells. The class given is functional, cell-based.
In another assay the test system is Raji. Nature of the assay: Antiproliferative activity against human Raji cells. The assay is classed as functional, cell-based.
A further assay concerns K562. Nature of the assay: Antiproliferative activity against human K562 cells. The class given is functional, cell-based.
Assay [2] concerns CCRF-CEM. Nature of the assay: Antiproliferative activity against human CCRF-CEM cells. The assay is classed as functional, cell-based.
For the next assay, the system named is WIL2-NS. Nature of the assay: Antiproliferative activity against human Wil2-NS cells. The class given is functional, cell-based.
Another assay deals with CCRF-SB. Nature of the assay: Antiproliferative activity against human CCRF-SB cells. The assay is classed as functional, cell-based.
Assay [3] in a line: Inhibition of telomerase activity in human melanoma cell extracts.
A further assay relates to Jurkat. Nature of the assay: Antiproliferative activity against human Jurkat cells. The assay is classed as functional, cell-based.

Structures are written as SMILES. pIC50: −log10 of the molar value. Bounds are passed on as bounds.

One may read the pIC50 as −log10 of the IC50, conventionally taken in molar units.

In the case of `C=C1CC(C)(CCCOc2cc(C(=O)Nc3cc(C(=O)Nc4cc(C(=O)Nc5cc(C(=O)NCCC(=N)N)n(C)c5)n(C)c4)n(C)c3)n(C)n2)OC1=O` (centres undefined), the negative logarithm of the IC50 (pIC50) with MOLT-4 was 3.60; in the assay with CCRF-CEM [1] it was 3.59; in the assay on L1210, 3.71; with FM3A it was 3.61.

Regarding `Cc1n[nH]c2c1C13CC1CN(C(=O)OC(C)(C)C)C3=CC2=O` (centres undefined), the pIC50 was 5.76 with MOLT-4; 5.90 with CCRF-CEM [1]; 6.17 with Daudi; 6.28 in the assay on L1210; 5.85 in the assay on FM3A.

For `C=C1CC(COc2cc(C(=O)Nc3cc(C(=O)Nc4cc(C(=O)Nc5cc(C(=O)NCCC(=N)N)n(C)c5)n(C)c4)n(C)c3)n(C)n2)(c2ccc(Cl)cc2)OC1=O` (centres undefined), the negative logarithm of the IC50 (pIC50) is 4.10 in the assay on MOLT-4, 4.06 in the assay with CCRF-CEM [1], 4.60 in the assay on L1210 and 4.19 in the assay with FM3A.

As for `C=C1CC(C)(CCCCCOc2cc(C(=O)Nc3cc(C(=O)Nc4cc(C(=O)Nc5cc(C(=O)NCCC(=N)N)n(C)c5)n(C)c4)n(C)c3)n(C)n2)OC1=O` (centres undefined), the pIC50 in the assay with MOLT-4 was 3.97; in the assay with CCRF-CEM [1], 4.13; in the assay on L1210 it was 3.96; in the assay with FM3A, 4.04.

Regarding `C=C1CC(COc2cc(C(=O)Nc3cc(C(=O)Nc4cc(C(=O)Nc5cc(C(=O)NCCC(=N)N)n(C)c5)n(C)c4)n(C)c3)n(C)n2)(c2ccc(-c3ccccc3)cc2)OC1=O` (centres undefined), the pIC50 in the assay on MOLT-4 was 4.19; with CCRF-CEM [1], 4.02; with L1210 it was 4.48; with FM3A, 4.66.

For `Cn1cc(NC(=O)c2cc(NC(=O)c3cc(NC=O)cn3C)cn2C)cc1C(=O)NCCC(=N)N` [STALLIMYCIN], the pIC50 in the assay with MOLT-4 is 4.19; in the assay with CCRF-CEM [1] it was 3.95; in the assay on L1210, 3.88; in the assay on FM3A, 3.82.

On to `Cn1cc(NC(=O)c2cc(NC(=O)c3cc(NC(=O)C(N)CN)cn3C)cn2C)cc1C(=O)NCCC(=N)N` (centres undefined), for which the pIC50 with MOLT-4 was 4.41; in the assay on Raji, 4.37; with K562 it was 4.66; in the assay with CCRF-CEM [2], 4.39; in the assay on WIL2-NS it was 3.97; in the assay with CCRF-SB, 4.01.

As for `C=C1CC(C)(COc2cc(C(=O)Nc3cc(C(=O)Nc4cc(C(=O)NCCC(=N)N)n(C)c4)n(C)c3)n(C)n2)OC1=O` (centres undefined), the pIC50 is 5.17 in the assay with MOLT-4, 5.02 in the assay on CCRF-CEM [1], 5.10 in the assay on L1210 and 4.56 in the assay on FM3A.

In the case of `Cn1cc(NC(=O)c2cc(NC(=O)c3cc(NC(=O)CCn4cc(F)c(=O)[nH]c4=O)cn3C)cn2C)cc1C(=O)NCCC(=N)N`, the pIC50 in the assay with K562 is 4.64.

With `C=C1CC(C)(COc2cc(C(=O)Nc3cc(C(=O)Nc4cc(C(=O)Nc5cc(C(=O)NCCC(=N)N)n(C)c5)n(C)c4)n(C)c3)n(C)n2)OC1=O` (centres undefined), the pIC50 with MOLT-4 is 4.83; in the assay with CCRF-CEM [1] it was 4.80; in the assay on L1210, 4.83; with FM3A it was 4.31.

For the compound `C=C1CC(COc2cc(C(=O)Nc3cc(C(=O)NCCC(=N)N)n(C)c3)n(C)n2)(c2ccccc2)OC1=O` (centres undefined), the pIC50 with MOLT-4 is 4.80; with CCRF-CEM [1], 4.72; in the assay on L1210, 4.90; in the assay with FM3A, 4.44.

Turning to `Cn1cc(NC(=O)c2cc(NC(=O)c3cc(NC(=O)CCCCCn4cc(F)c(=O)[nH]c4=O)cn3C)cn2C)cc1C(=O)NCCC(=N)N`, in the assay with K562, the pIC50 is 4.30.

For the compound `Cn1cc(NC(=O)c2cc(NC(=O)c3cc(NC(=O)[C@@H](N)CS)cn3C)cn2C)cc1C(=O)NCCC(=N)N`, the pIC50 is 4.45 in the assay with MOLT-4; 4.35 in the assay with Raji; 4.62 in the assay with K562; 4.44 in the assay on CCRF-CEM [2]; 4.01 in the assay with WIL2-NS; 4.04 in the assay with CCRF-SB.

For `Cn1cc(NC(=O)c2cc(NC(=O)c3cc(NC(=O)c4cc(NC(=O)c5cc(NC=O)cn5C)cn4C)cn3C)cn2C)cc1C(=O)NCCC(=N)N`, the pIC50 in assay [3] was 4.62.

Turning to `Cn1cc(NC(=O)c2cc(NC(=O)c3cc(NC(=O)CCCCCCn4cc(F)c(=O)[nH]c4=O)cn3C)cn2C)cc1C(=O)NCCC(=N)N`, in the assay with K562, the pIC50 was 4.30.

On to `COC(=O)C1(O)C(OC)=CC(=O)N1CCCC(=O)Nc1cc(C(=O)Nc2cc(C(=O)Nc3cc(C(=O)NCCCN(C)C)n(C)c3)n(C)c2)n(C)c1` (centres undefined), for which the pIC50 with L1210 was below 3.70.

As for `C=C1CC(COc2cc(C(=O)Nc3cc(C(=O)Nc4cc(C(=O)Nc5cc(C(=O)NCCNC(=N)N)n(C)c5)n(C)c4)n(C)c3)n(C)n2)(c2ccccc2)OC1=O` (centres undefined), the negative-log IC50 (pIC50) was 5.00 with MOLT-4, 5.00 in the assay on CCRF-CEM [1], 5.29 in the assay with L1210 and 4.69 in the assay with FM3A.

Regarding `C=C1CC(COc2cc(C(=O)Nc3cc(C(=O)Nc4cc(C(=O)Nc5cc(C(=O)NCCC(=N)N)n(C)c5)n(C)c4)n(C)c3)n(C)n2)(c2ccccc2)OC1=O` (centres undefined), the pIC50 with MOLT-4 was 5.28; in the assay on CCRF-CEM [1], 5.01; with L1210 it was 5.38; in the assay with FM3A it was 4.76.

With `C=C1CC(COc2cc(C(=O)Nc3cc(C(=O)Nc4cc(C(=O)NCCC(=N)N)n(C)c4)n(C)c3)n(C)n2)(c2ccccc2)OC1=O` (centres undefined), the pIC50 in the assay on MOLT-4 is 5.34; in the assay with CCRF-CEM [1], 5.24; in the assay on L1210 it was 5.39; in the assay on FM3A it was 4.73.

As for `C=C1CC(C)(COc2cc(C(=O)Nc3cc(C(=O)NCCC(=N)N)n(C)c3)n(C)n2)OC1=O` (centres undefined), the pIC50 with MOLT-4 is 4.65; with CCRF-CEM [1] it was 4.58; with L1210 it was 4.61; in the assay on FM3A, 4.49.

With `C=C1CC(C)(COc2cc(C(=O)Nc3cc(C(=O)Nc4cc(C(=O)Nc5cc(C(=O)NCCNC(=N)N)n(C)c5)n(C)c4)n(C)c3)n(C)n2)OC1=O` (centres undefined), the pIC50 is 4.91 in the assay with MOLT-4, 4.80 with CCRF-CEM [1], 5.02 with L1210 and 4.37 in the assay with FM3A.

Take `Cn1cc(NC(=O)c2cc(NC(=O)c3cc(NC(=O)CCCCn4cc(F)c(=O)[nH]c4=O)cn3C)cn2C)cc1C(=O)NCCC(=N)N`: in the assay on K562, the pIC50 was 3.82.

`Cn1cc(NC(=O)c2cc(NC(=O)c3cc(NC(=O)CCCn4cc(F)c(=O)[nH]c4=O)cn3C)cn2C)cc1C(=O)NCCC(=N)N` gave a pIC50 with K562 of 4.09.

In the assay with K562, `Cn1cc(NC(=O)c2cc(NC(=O)c3cc(NC(=O)Cn4cc(F)c(=O)[nH]c4=O)cn3C)cn2C)cc1C(=O)NCCC(=N)N` had a pIC50 below 3.70.

The compound `COc1cc2c(cc1OCCC(=O)Nc1cc(C(=O)NCCC(=N)N)n(C)c1)N=C[C@@H]1CCCN1C2=O` gave a pIC50 in the assay with K562 below 4.00.

Turning to `COc1cc2c(cc1O)N=C[C@@H]1CCCN1C2=O`, the pIC50 is 5.66 in the assay with Jurkat and 6.00 with K562.

In the case of `C=C1CC(C)(CCCCCCCOc2cc(C(=O)Nc3cc(C(=O)Nc4cc(C(=O)Nc5cc(C(=O)NCCC(=N)N)n(C)c5)n(C)c4)n(C)c3)n(C)n2)OC1=O` (centres undefined), the pIC50 in the assay on MOLT-4 was 4.15; in the assay on CCRF-CEM [1], 4.45; in the assay on L1210, 4.57; in the assay on FM3A, 4.20.

With `CC(C)(C)OC(=O)N1CC2CC23C1=CC(=O)c1c3cnn1Cc1ccccc1` (centres undefined), the negative logarithm of the IC50 (pIC50) is 5.07 with MOLT-4; 5.17 in the assay with CCRF-CEM [1]; 5.12 with Daudi; 5.57 in the assay on L1210; 4.74 with FM3A.

These data come from ChEMBL document CHEMBL1140595, “Hybrid molecules between distamycin A and active moieties of antitumor agents” (Bioorg Med Chem, 2007).
